Experimental data published in US11149046B2, “Antibacterial sideromycins” (Hsiri Therapeutics, Inc., priority 2014, dated 2021).
In brackets after ≈: the same amount, converted by molar mass. Like-named read-outs stand apart in the source and are kept apart here. Each block holds one molecule with its values, some of them ahead of it.

Legend:
Pa6 = test: MIC determination; type: cell-based, Pseudomonas aeruginosa; settings: Pseudomonas aeruginosa, read-out: MIC
From the text: (§1) MIC (minimum inhibition concentration) is given in μM and AD (agar diffusion zones of inhibition are given in mm from Kirby-Bauer Petri dish growth inhibition studies).

Pa4 = test: MIC determination; type: cell-based, Pseudomonas aeruginosa; settings: Pseudomonas aeruginosa
From the text: (§2) Table 3 that was included in the first Example 4 section provides antibacterial data for the first synthetic sideromycins we prepared and studied. The second Example 4 section elaborated and expanded on that data with inclusion of representative antibacterial data in the text and associated pictures of Petri dish assays. MIC (minimum inhibition concentration) is given in μM and AD (agar diffusion zones of inhibition are given in mm from Kirby-Bauer Petri dish growth inhibition studies).

P. aeruginosa KW799/wt = test: MIC determination; type: cell-based, Pseudomonas aeruginosa; settings: read-out: MIC
From the text: as §2

[1] = tested on: Pseudomonas aeruginosa 01 (Pa01); test: MIC determination; type: cell-based; settings: read-out: MIC
From the text: as §2

A. baumannii ATCC 17961 = test: MIC determination; type: cell-based, Acinetobacter baumannii; settings: read-out: MIC
From the text: as §2

[2] = tested on: Pa-Da-1304 CF patient isolate; test: MIC determination; type: cell-based, Pseudomonas aeruginosa; settings: for MIC: Pseudomonas aeruginosa
From the text: as §1
We obtained a clinical isolate of Pseudomonas from a cystic fibrosis patient.

[3] = tested on: strains of Pseudomonas and Acinetobacter; test: Antibacterial activity, general statements; type: cell-based; settings: general statements of the text
Procedure: Antibiotic activity was determined using agar diffusion assays against representative Gram-negative bacteria, including Pseudomonas aeruginosa (Pa6), and several multidrug resistant forms of Acinetobacter baumannii. Representative results are shown in Table 1 and a corresponding picture of an actual petri dish showing the agar diffusion results (FIG. 4). […].

[4] = tested on: P. aeruginosa KW799/61 (permeability mutant); test: microbe, parasite or virus in culture; type: cell-based, Pseudomonas aeruginosa; settings: Pseudomonas aeruginosa
From the text: as §1

E. coli DC0 = test: MIC determination; type: cell-based; settings: Escherichia coli, DC0; Table 5; read-out: MIC
From the text: as §2

[5] = tested on: E. coli DC2 (permeability mutant); test: MIC determination; type: cell-based; settings: Escherichia coli
From the text: as §2

MIC (Pa6; Table 6): > 50 µM
MIC (Pa4; Table 6): > 50 µM
MIC (P. aeruginosa KW799/wt; Pseudomonas aeruginosa, KW799/WT, Table 6): 1.56 µM (≈ 1.86 µg/mL)
MIC ([1]; Pseudomonas aeruginosa, Table 6): > 50 µM
MIC (A. baumannii ATCC 17961; Acinetobacter baumannii, ATCC17961, Table 6, head prints A. baumannii only): 0.2 µM (≈ 0.238 µg/mL)
MIC ([2]; Table 6): > 50 µM
SMILES: CC(=O)Oc1cccc(C(=O)NCCCCN(CCCNC(=O)c2cccc(OC(C)=O)c2OC(C)=O)C(=O)CCC(=O)N[C@@H](CCCN(O)C(C)=O)C(=O)N[C@@H](C(=O)N[C@@H]2C(=O)N3C(C(=O)O)=C(Cl)CCC23)c2ccccc2)c1OC(C)=O (stereo partly shown) [MG-1-185]

MIC (A. baumannii ATCC 17961): 0.025 µM (≈ 0.027 µg/mL)
SMILES: O=C(CCC(=O)N(CCCCNC(=O)c1cccc(O)c1O)CCCNC(=O)c1cccc(O)c1O)NCCCCCN(O)C(=O)CCCC(=O)NC(C(=O)NC1C(=O)N2C(C(=O)O)=C(Cl)CSC12)c1ccccc1 (stereo not shown) [MG-1-285]

MIC (P. aeruginosa KW799/wt; Table 7): 0.05 µM (≈ 0.0384 µg/mL)
MIC ([1]; Table 7): 1.56 µM (≈ 1.2 µg/mL)
MIC (A. baumannii ATCC 17961; Table 7): 0.05 µM (≈ 0.0384 µg/mL)
SMILES: O=C(CN(CCCCNC(=O)c1cccc(O)c1O)C(=O)c1cccc(O)c1O)NC(C(=O)NC1C(=O)N2C(C(=O)O)=C(Cl)CSC12)c1ccccc1 (stereo not shown) [YML-1-109]
antibacterial activity (in words) [3]: comparable to the loracarbef conjugate YML-1-91

SMILES: CC(=O)Oc1cccc(C(=O)N(CCCCNC(=O)c2cccc(OC(C)=O)c2OC(C)=O)CC(=O)N[C@H](C(=O)N[C@@H]2C(=O)N3C(C(=O)O)=C(Cl)CC[C@H]23)c2ccccc2)c1O [YML-I-57]
MIC [4]: 0.125 µM (≈ 0.11 µg/mL)
MIC (Pa6; Table 5): 1.56 µM (≈ 1.37 µg/mL)
MIC (Pa4; Table 5): 12 µM (≈ 10.5 µg/mL)
MIC (P. aeruginosa KW799/wt; Pseudomonas aeruginosa, KW799/WT, Table 5): 0.025 µM (≈ 0.0219 µg/mL)
MIC (E. coli DC0): 0.006 µM (≈ 0.00526 µg/mL)
MIC ([1]; Pseudomonas aeruginosa, Table 5): 0.78 µM (≈ 0.683 µg/mL)
MIC [5]: 0.006 µM (≈ 0.00526 µg/mL)
MIC (A. baumannii ATCC 17961; Acinetobacter baumannii, ATCC17961, Table 5, head prints A. baumannii only): 0.02 to 0.0625 µM (≈ 0.0175 to 0.0548 µg/mL)
MIC ([2]; Table 5): > 100 µM
antibacterial activity (in words) [3]: comparable to the fully acetylated version, YML-1-45

SMILES: CC1(C)S[C@@H]2[C@H](NC(=O)[C@H](N)c3ccc(O)cc3)C(=O)N2[C@H]1C(=O)O [amoxicillin, reference compound]
susceptibility of the clinical isolate (in words) ([2]; preliminary tests): resistant

MIC (P. aeruginosa KW799/wt; Pseudomonas aeruginosa, KW799/WT, Table 7): > 50 µM
MIC ([1]; Pseudomonas aeruginosa, Table 7): > 50 µM
MIC (A. baumannii ATCC 17961; Acinetobacter baumannii, ATCC17961, Table 7): > 50 µM
SMILES: N[C@@H](C(=O)N[C@@H]1C(=O)N2C(C(=O)O)=C(Cl)CS[C@H]12)c1ccccc1 [cefaclor, reference compound]
